Assay results taken from patent publication US20260055079A1, “PHTHALAZINONE COMPOUNDS AS PARP7 INHIBITORS” (AZKARRA THERAPEUTICS, INC., priority 2022, published 2026).

Each compound was assayed against His-GST-PARP7 (Homo sapiens (Human), UniProt Q7Z3E1) (assay: PARP7 biochemical assay). Conditions: read-out: PARP7 IC50.
Sequence of His-GST-PARP7 (Q7Z3E1 whole entry): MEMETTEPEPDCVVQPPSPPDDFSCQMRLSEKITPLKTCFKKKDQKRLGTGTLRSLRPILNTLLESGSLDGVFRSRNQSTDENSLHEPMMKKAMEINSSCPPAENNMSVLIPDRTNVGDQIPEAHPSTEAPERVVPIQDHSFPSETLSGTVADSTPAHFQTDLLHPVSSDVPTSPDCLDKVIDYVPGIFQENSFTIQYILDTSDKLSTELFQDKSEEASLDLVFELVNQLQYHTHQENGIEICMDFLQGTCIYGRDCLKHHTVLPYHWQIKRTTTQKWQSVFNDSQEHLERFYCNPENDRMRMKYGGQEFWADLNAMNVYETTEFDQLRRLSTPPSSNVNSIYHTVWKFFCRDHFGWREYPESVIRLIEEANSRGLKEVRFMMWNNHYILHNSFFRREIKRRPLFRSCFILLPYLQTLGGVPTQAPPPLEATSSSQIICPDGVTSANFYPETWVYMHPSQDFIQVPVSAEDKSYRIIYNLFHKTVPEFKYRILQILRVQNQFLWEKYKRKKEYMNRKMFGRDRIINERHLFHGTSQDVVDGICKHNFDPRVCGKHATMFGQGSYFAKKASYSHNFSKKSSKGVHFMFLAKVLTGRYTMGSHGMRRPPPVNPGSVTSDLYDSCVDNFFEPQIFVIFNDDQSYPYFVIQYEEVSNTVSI
Work on O=C(c1cc(Cc2n[nH]c(=O)c3ccc(OC4CCC4)cc23)ccc1F)N1CC2CN(C(=O)C3CC3)CC2C1 (stereo not drawn) [Example 119, 6-Cyclobutoxy-4-(3-(5-(cyclopropanecarbonyl)octahydropyrrolo[3,4-c]pyrrole-2-carbonyl)-4-fluorobenzyl)phthalazin-1(2H)-one] yielded an IC50 of 500 to 2000 nM.
CN(c1nccc(C(F)(F)F)n1)C1CN(C(=O)c2cc(Cc3n[nH]c(=O)c4ccc(OC5CCC5)cc34)ccc2F)C1 [Example 120, 6-cyclobutoxy-4-(4-fluoro-3-(3-(methyl(4-(trifluoromethyl)pyrimidin-2-yl)amino)azetidine-1-carbonyl)benzyl) phthalazin-1(2H)-one] was tested, and the IC50 was 500 to 2000 nM.
Work on CN(C(=O)C1CC1)C1CN(C(=O)c2cc(Cc3n[nH]c(=O)c4ccc(OC5CCC5)cc34)ccc2F)C1 [Example 121, N-(1-(5-((7-Cyclobutoxy-4-oxo-3,4-dihydrophthalazin-1-yl)methyl)-2-fluorobenzoyl)azetidin-3-yl)-N-methylcyclopropanecarboxamide] yielded an IC50 of 500 to 2000 nM.
In the case of CN(C(=O)C1CCO1)C1CN(C(=O)c2cc(Cc3n[nH]c(=O)c4ccc(OC5CCC5)cc34)ccc2F)C1 (stereo not drawn) [Example 122, N-(1-(5-((7-cyclobutoxy-4-oxo-3,4-dihydrophthalazin-1-yl)methyl)-2-fluorobenzoyl)azetidin-3-yl)-N-methyloxetane-2-carboxamide], the IC50 is reported as 500 to 2000 nM.
In the case of CNC(=O)c1ccnc(N(C)C2CN(C(=O)c3cc(Cc4n[nH]c(=O)c5ccc(OC6CCC6)cc45)ccc3F)C2)c1 [Example 123, 2-((1-(5-((7-cyclobutoxy-4-oxo-3,4-dihydrophthalazin-1-yl)methyl)-2-fluorobenzoyl)azetidin-3-yl)(methyl)amino)-N-methylisonicotinamide], the IC50 is reported as 500 to 2000 nM.
Compound CN(c1cc(C#N)ccn1)C1CN(C(=O)c2cc(Cc3n[nH]c(=O)c4ccc(OC5COC5)cc34)ccc2F)C1 [Example 124, 2-((1-(2-fluoro-5-((7-(oxetan-3-yloxy)-4-oxo-3,4-dihydrophthalazin-1-yl)methyl)benzoyl)azetidin-3-yl)(methyl)amino)isonicotinonitrile] has an IC50 of over 2000 nM.
With N#Cc1cncc(N2CCN(C(=O)c3cc(Cc4n[nH]c(=O)c5ccc(OC6CCC6)cc45)ccc3F)CC2)c1 [Example 141, 5-(4-(5-((7-cyclobutoxy-4-oxo-3,4-dihydrophthalazin-1-yl)methyl)-2-fluorobenzoyl)piperazin-1-yl)nicotinonitrile] the IC50 was 50 to 100 nM.
With N#Cc1ccc(N2CC3CCC2CN3C(=O)c2cc(Cc3n[nH]c(=O)c4ccc(OC5CCC5)cc34)ccc2F)nc1 (stereo not drawn) [Example 143, 6-(5-(5-((7-cyclobutoxy-4-oxo-3,4-dihydrophthalazin-1-yl)methyl)-2-fluorobenzoyl)-2,5-diazabicyclo[2.2.2]octan-2-yl)nicotinonitrile] the IC50 was 50 to 100 nM.
O=C(c1cc(Cc2n[nH]c(=O)c3ccc(OC4CCC4)cc23)ccc1F)N1CC2CCC1CN2c1ncc(C(F)(F)F)cn1 (stereo not drawn) [Example 144, 6-cyclobutoxy-4-(4-fluoro-3-(5-(5-(trifluoromethyl)pyrimidin-2-yl)-2,5-diazabicyclo[2.2.2]octane-2-carbonyl)benzyl)phthalazin-1(2H)-one] gave an IC50 of under 50 nM.
In the case of O=C(c1cc(Cc2n[nH]c(=O)c3ccc(OC4CCC4)cc23)ccc1F)N1CC2CN(c3ncc(C(F)(F)F)cn3)CC2C1 (stereo not drawn) [Example 147, 6-cyclobutoxy-4-(4-fluoro-3-(5-(5-(trifluoromethyl)pyrimidin-2-yl)octahydropyrrolo[3,4-c]pyrrole-2-carbonyl)benzyl)phthalazin-1(2H)-one], the IC50 is reported as over 2000 nM.
CC(F)(F)c1cnc(N2CCN(C(=O)c3cc(Cc4n[nH]c(=O)c5ccc(OC6CCC6)cc45)ccc3F)CC2)nc1 [Example 161, 6-cyclobutoxy-4-(3-(4-(5-(1,1-difluoroethyl)pyrimidin-2-yl)piperazine-1-carbonyl)-4-fluorobenzyl)phthalazin-1(2H)-one] gave an IC50 of under 50 nM.
Work on O=C(c1cc(Cc2n[nH]c(=O)c3ccc(OC4CCC4)cc23)ccc1F)N1CCn2c(nnc2C(F)F)C1 [Example 163, 6-Cyclobutoxy-4-(3-(3-(difluoromethyl)-5,6,7,8-tetrahydro-[1,2,4]triazolo[4,3-a]pyrazine-7-carbonyl)-4-fluorobenzyl)phthalazin-1(2H)-one] yielded an IC50 of under 50 nM.
In the case of O=C(c1cc(Cc2n[nH]c(=O)c3ccc(OC4CCC4)cc23)ccc1F)N1CCn2c(CF)nnc2C1 [Example 164, 6-Cyclobutoxy-4-(4-fluoro-3-(3-(fluoromethyl)-5,6,7,8-tetrahydro-[1,2,4]triazolo[4,3-a]pyrazine-7-carbonyl)benzyl)phthalazin-1(2H)-one], the IC50 is reported as under 50 nM.
Compound COc1nnc2n1CCN(C(=O)c1cc(Cc3n[nH]c(=O)c4ccc(OC5CCC5)cc34)ccc1F)C2 [Example 165, 6-Cyclobutoxy-4-(4-fluoro-3-(3-methoxy-5,6,7,8-tetrahydro-[1,2,4]triazolo[4,3-a]pyrazine-7-carbonyl)benzyl)phthalazin-1(2H)-one] has an IC50 of under 50 nM.
Work on O=C(c1cc(Cc2n[nH]c(=O)c3ccc(OC4CCC4)cc23)ccc1F)N1CCn2c(CO)nnc2C1 [Example 166, 6-Cyclobutoxy-4-(4-fluoro-3-(3-(hydroxymethyl)-5,6,7,8-tetrahydro-[1,2,4]triazolo[4,3-a]pyrazine-7-carbonyl)benzyl)phthalazin-1(2H)-one] yielded an IC50 of under 50 nM.
COCc1nnc2n1CCN(C(=O)c1cc(Cc3n[nH]c(=O)c4ccc(OC5CCC5)cc34)ccc1F)C2 [Example 167, 6-Cyclobutoxy-4-(4-fluoro-3-(3-(methoxymethyl)-5,6,7,8-tetrahydro-[1,2,4]triazolo[4,3-a]pyrazine-7-carbonyl)benzyl)phthalazin-1(2H)-one] gave an IC50 of under 50 nM.
O=C(c1cccc(Cc2n[nH]c(=O)c3ccc(OC4CCC4)cc23)c1)N1CCN(c2ncc(C(F)(F)F)cn2)CC1 [Example 170, 6-cyclobutoxy-4-(3-(4-(5-(trifluoromethyl)pyrimidin-2-yl)piperazine-1-carbonyl)benzyl)phthalazin-1(2H)-one] was tested, and the IC50 was under 50 nM.
O=C(c1cccc(Cc2n[nH]c(=O)c3ccc(OC4CCC4)cc23)c1Cl)N1CCN(c2ncc(C(F)(F)F)cn2)CC1 [Example 171, 4-(2-Chloro-3-(4-(5-(trifluoromethyl)pyrimidin-2-yl)piperazine-1-carbonyl)benzyl)-6-cyclobutoxyphthalazin-1(2H)-one] was tested, and the IC50 was 50 to 100 nM.
Compound O=C(c1ccc(Cc2n[nH]c(=O)c3ccc(OC4CCC4)cc23)cc1F)N1CCN(c2ncc(C(F)(F)F)cn2)CC1 [Example 172, 6-Cyclobutoxy-4-(3-fluoro-4-(4-(5-(trifluoromethyl)pyrimidin-2-yl)piperazine-1-carbonyl)benzyl)phthalazin-1(2H)-one] has an IC50 of over 2000 nM.
With O=C(c1ccc(Cl)c(Cc2n[nH]c(=O)c3ccc(OC4CCC4)cc23)c1)N1CCN(c2ncc(C(F)(F)F)cn2)CC1 [Example 173, 4-(2-Chloro-5-(4-(5-(trifluoromethyl)pyrimidin-2-yl)piperazine-1-carbonyl)benzyl)-6-cyclobutoxyphthalazin-1(2H)-one] the IC50 was 500 to 2000 nM.
O=C(c1cc(Cl)cc(Cc2n[nH]c(=O)c3ccc(OC4CCC4)cc23)c1)N1CCN(c2ncc(C(F)(F)F)cn2)CC1 [Example 174, 4-(3-chloro-5-(4-(5-(trifluoromethyl)pyrimidin-2-yl)piperazine-1-carbonyl)benzyl)-6-cyclobutoxyphthalazin-1(2H)-one] showed an IC50 of under 50 nM.
For N#Cc1ccnc(N2CCN(C(=O)c3cc(Cc4n[nH]c(=O)c5ccc(OC6CCC6)cc45)cc4c3OCC4)CC2)c1 [Example 175, 2-(4-(5-((7-cyclobutoxy-4-oxo-3,4-dihydrophthalazin-1-yl)methyl)-2,3-dihydrobenzofuran-7-carbonyl)piperazin-1-yl)isonicotinonitrile], the IC50 was 50 to 100 nM.
Work on N#Cc1ccc(N2CCN(C(=O)c3cc(Cc4n[nH]c(=O)c5ccc(CC(F)(F)F)cc45)ccc3F)CC2)nc1 [Example 183, 6-(4-(2-Fluoro-5-((4-oxo-7-(2,2,2-trifluoroethyl)-3,4-dihydrophthalazin-1-yl)methyl)benzoyl)piperazin-1-yl)nicotinonitrile] yielded an IC50 of under 50 nM.
CN1CCN(C(=O)c2ccc(Cc3n[nH]c(=O)c4c(F)cccc34)cc2)CC1 [Example 186, 8-Fluoro-4-(4-(4-methylpiperazine-1-carbonyl)benzyl)phthalazin-1(2H)-one] was tested, and the IC50 was over 2000 nM.
CN(c1cc(C#N)ccn1)C1CN(S(=O)(=O)c2cc(Cc3n[nH]c(=O)c4ccc(OC5CCC5)cc34)ccc2F)C1 [Example 189, 2-((1-((5-((7-cyclobutoxy-4-oxo-3,4-dihydrophthalazin-1-yl)methyl)-2-fluorophenyl)sulfonyl)azetidin-3-yl)(methyl)amino)isonicotinonitrile] showed an IC50 of 500 to 2000 nM.
In the case of CC#Cc1ccc2c(=O)[nH]nc(C(C)CCCC(=O)N3CCN(c4ncc(C(F)(F)F)cn4)CC3)c2c1 (stereo not drawn) [Example 195, 4-(6-Oxo-6-(4-(5-(trifluoromethyl)pyrimidin-2-yl)piperazin-1-yl)hexan-2-yl)-6-(prop-1-yn-1-yl)phthalazin-1(2H)-one], the IC50 is reported as under 50 nM.
Compound CC#Cc1ccc2c(=O)[nH]nc(Cc3ccc(F)c(C(=O)NC(C)c4nnc(C(F)(F)F)o4)c3)c2c1 (stereo not drawn) [Example 200, 2-Fluoro-5-((4-oxo-7-(prop-1-ynyl)-3,4-dihydrophthalazin-1-yl)methyl)-N-(1-(5-(trifluoromethyl)-1,3,4-oxadiazol-2-yl)ethyl)benzamide] has an IC50 of over 2000 nM.
CC#Cc1ccc2c(=O)[nH]nc(Cc3ccc(F)c(C(=O)N(C)Cc4nnc(C(F)(F)F)o4)c3)c2c1 [Example 202, 2-Fluoro-N-methyl-5-((4-oxo-7-(prop-1-ynyl)-3,4-dihydrophthalazin-1-yl)methyl)-N-((5-(trifluoromethyl)-1,3,4-oxadiazol-2-yl)methyl)benzamide] showed an IC50 of 100 to 500 nM.
Work on O=C(NC1CN(C(=O)C2CC2)C1)c1cc(Cc2n[nH]c(=O)c3ccc(OC4CCC4)cc23)ccc1F [Example 203, 5-((7-Cyclobutoxy-4-oxo-3,4-dihydrophthalazin-1-yl)methyl)-N-(1-(cyclopropanecarbonyl)azetidin-3-yl)-2-fluorobenzamide] yielded an IC50 of 100 to 500 nM.
In the case of N#Cc1ccc(N2CC(NC(=O)c3cc(Cc4n[nH]c(=O)c5ccc(OC6CCC6)cc45)ccc3F)C2)nc1 [Example 204, N-(1-(5-Cyanopyridin-2-yl)azetidin-3-yl)-5-((7-cyclobutoxy-4-oxo-3,4-dihydrophthalazin-1-yl)methyl)-2-fluorobenzamide], the IC50 is reported as over 2000 nM.
